Assay results: paper PMC10175918 (Communications Biology, 2023)
Read-outs that look alike come from different tables or passages of the source.

Key:
Test in all cases: TGFα-shedding assay-based GPCR screening with chimeric Gα subunit proteins
Type in all cases: cell-based
348 GPCRs [1] = target: T1, 348 GPCRs (Homo sapiens, UniProt Q14330); conditions: GPR18 (G protein-coupled receptor 18); 10µM, Favipiravir 100μM
T1 construct: expressed in transfected cells; host or cells: HEK293A
T1 sequence (Q14330 1-331): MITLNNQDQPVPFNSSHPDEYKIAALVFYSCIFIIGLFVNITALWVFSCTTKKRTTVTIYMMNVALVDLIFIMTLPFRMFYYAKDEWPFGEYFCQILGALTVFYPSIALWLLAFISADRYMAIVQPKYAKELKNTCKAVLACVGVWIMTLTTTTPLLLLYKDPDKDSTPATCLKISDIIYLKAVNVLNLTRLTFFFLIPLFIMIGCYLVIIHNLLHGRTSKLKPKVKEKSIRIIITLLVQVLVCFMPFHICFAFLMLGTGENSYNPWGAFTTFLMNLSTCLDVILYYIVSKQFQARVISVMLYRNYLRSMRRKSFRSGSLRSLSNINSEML

348 GPCRs [2] = target: T2, 348 GPCRs (Homo sapiens, UniProt P08588)
T2 construct: expressed in transfected cells; host or cells: HEK293A
T2 sequence (P08588 whole entry): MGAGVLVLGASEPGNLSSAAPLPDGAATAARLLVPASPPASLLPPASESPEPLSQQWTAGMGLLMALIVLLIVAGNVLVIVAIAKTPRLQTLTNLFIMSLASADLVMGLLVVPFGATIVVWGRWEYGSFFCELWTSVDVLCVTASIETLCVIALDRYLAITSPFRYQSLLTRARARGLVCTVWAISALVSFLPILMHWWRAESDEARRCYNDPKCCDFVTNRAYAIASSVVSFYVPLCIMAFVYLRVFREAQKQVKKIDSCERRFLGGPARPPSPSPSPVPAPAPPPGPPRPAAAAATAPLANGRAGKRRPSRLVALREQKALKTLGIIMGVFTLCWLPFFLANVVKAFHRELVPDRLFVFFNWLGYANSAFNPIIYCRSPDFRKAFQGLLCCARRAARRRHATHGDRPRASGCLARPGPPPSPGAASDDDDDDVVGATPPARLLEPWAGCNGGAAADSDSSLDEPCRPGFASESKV

348 GPCRs [3] = target: T3, 348 GPCRs (Homo sapiens, UniProt Q96LB1); conditions: 10µM, Favipiravir 100μM
T3 construct: expressed in transfected cells; host or cells: HEK293A
T3 sequence (Q96LB1 1-330): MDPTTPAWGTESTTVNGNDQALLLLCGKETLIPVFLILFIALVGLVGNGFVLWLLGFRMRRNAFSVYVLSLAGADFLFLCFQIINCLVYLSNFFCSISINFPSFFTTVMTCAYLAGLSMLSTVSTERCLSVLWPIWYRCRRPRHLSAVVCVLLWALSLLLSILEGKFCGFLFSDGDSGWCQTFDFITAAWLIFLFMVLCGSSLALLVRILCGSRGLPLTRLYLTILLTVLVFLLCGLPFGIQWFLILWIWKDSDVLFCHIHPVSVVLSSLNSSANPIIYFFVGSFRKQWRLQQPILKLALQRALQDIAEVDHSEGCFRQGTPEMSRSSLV

348 GPCRs [4] = target: T4, 348 GPCRs (Homo sapiens, UniProt O43613); conditions: 10µM, Favipiravir 100μM
T4 construct: expressed in transfected cells; host or cells: HEK293A
T4 sequence (O43613 1-425): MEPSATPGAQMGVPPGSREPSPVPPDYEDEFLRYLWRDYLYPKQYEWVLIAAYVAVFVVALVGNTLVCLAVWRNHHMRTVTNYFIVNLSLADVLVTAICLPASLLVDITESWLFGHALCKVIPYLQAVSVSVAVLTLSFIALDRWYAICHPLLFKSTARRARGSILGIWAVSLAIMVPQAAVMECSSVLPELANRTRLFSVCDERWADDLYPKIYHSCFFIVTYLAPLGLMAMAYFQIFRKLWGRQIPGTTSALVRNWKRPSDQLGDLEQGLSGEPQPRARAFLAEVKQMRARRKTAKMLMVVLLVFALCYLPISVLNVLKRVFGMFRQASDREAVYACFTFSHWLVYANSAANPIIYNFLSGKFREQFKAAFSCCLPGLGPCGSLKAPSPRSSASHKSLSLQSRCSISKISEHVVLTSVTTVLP

348 GPCRs [5] = target: T5, 348 GPCRs (Homo sapiens, UniProt Q5NUL3)
T5 construct: expressed in transfected cells; host or cells: HEK293A
T5 sequence (Q5NUL3 1-361): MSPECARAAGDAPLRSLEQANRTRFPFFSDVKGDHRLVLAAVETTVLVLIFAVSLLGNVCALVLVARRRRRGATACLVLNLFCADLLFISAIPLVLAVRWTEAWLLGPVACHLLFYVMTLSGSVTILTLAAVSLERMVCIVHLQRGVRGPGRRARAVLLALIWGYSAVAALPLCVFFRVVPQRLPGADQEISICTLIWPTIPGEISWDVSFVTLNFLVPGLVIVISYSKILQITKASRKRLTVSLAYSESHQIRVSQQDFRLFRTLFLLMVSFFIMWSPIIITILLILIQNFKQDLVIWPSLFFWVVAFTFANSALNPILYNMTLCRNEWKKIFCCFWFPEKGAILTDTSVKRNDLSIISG

[6] = GPCR β1 (adrenoceptor beta 1), read-out: % GPCR activation compared to TPA
[7] = MRGPRX2 (MAS-related GPR, member X2), read-out: % GPCR activation compared to TPA
[8] = HCRTR1 (hypocretin (orexin) receptor 1), read-out: % GPCR activation compared to TPA
[9] = FFA4 (free fatty acid receptor 4), Favipiravir 100μM, read-out: % GPCR activation compared to TPA
[10] = GPCR GPR120 (Free Fatty Acid Receptor 4 (FFAR4)), read-out: % GPCR activation compared to TPA
[11] = read-out: % GPCR activation compared to TPA, GPCR β1 (adrenoceptor beta 1)
[12] = read-out: % GPCR activation compared to TPA, MRGPRX2 (MAS-related GPR, member X2)
[13] = read-out: % GPCR activation compared to TPA, HCRTR1 (hypocretin (orexin) receptor 1)
[14] = read-out: % GPCR activation compared to TPA, FFA4 (free fatty acid receptor 4), Favipiravir 100μM
[15] = read-out: % GPCR activation compared to TPA, GPCR GPR120 (Free Fatty Acid Receptor 4 (FFAR4))

Compound	% GPCR activation compared to TPA (348 GPCRs [1])	activation at 10 µM (348 GPCRs [2]; [6])	activation at 100 µM (348 GPCRs [3]; [7])	activation at 100 µM (348 GPCRs [4]; [8])	activation at 10 µM (348 GPCRs [5]; [9])	activation at 10 µM (348 GPCRs [5]; [10])	activation at 100 µM (348 GPCRs [2]; GPCR β1 (adrenoceptor beta 1), 100μM, read-out: % GPCR activation compared to TPA)	activation at 100 µM (348 GPCRs [5]; GPCR GPR120 (Free Fatty Acid Receptor 4 (FFAR4)), 100μM, read-out: % GPCR activation compared to TPA)	activation at 10 µM (348 GPCRs [2]; [11])	activation at 100 µM (348 GPCRs [3]; [12])	activation at 100 µM (348 GPCRs [4]; [13])	activation at 10 µM (348 GPCRs [5]; [14])	activation at 10 µM (348 GPCRs [5]; [15])
CCC(CC)COC(=O)[C@H](C)N[P@](=O)(OC[C@H]1O[C@@](C#N)(c2ccc3c(N)ncnn23)[C@H](O)[C@@H]1O)Oc1ccccc1 [remdesivir]	1.118%								1.07%	0.19%	16.7%	-7.9%	1.09%
CC(C)OC(=O)[C@H](C)N[P@](=O)(OC[C@H]1O[C@@H](n2ccc(=O)[nH]c2=O)[C@](C)(F)[C@@H]1O)Oc1ccccc1 [sofosbuvir]	-3.042%								1.27%	0.383%	-0.162%	-2.55%	-1.1%

The next lines start with results.

% GPCR activation compared to TPA (348 GPCRs [1])	activation at 10 µM (348 GPCRs [2]; [6])	activation at 100 µM (348 GPCRs [3]; [7])	activation at 100 µM (348 GPCRs [4]; [8])	activation at 10 µM (348 GPCRs [5]; [9])	activation at 10 µM (348 GPCRs [5]; [10])	activation at 100 µM (348 GPCRs [2]; GPCR β1 (adrenoceptor beta 1), 100μM, read-out: % GPCR activation compared to TPA)	activation at 100 µM (348 GPCRs [5]; GPCR GPR120 (Free Fatty Acid Receptor 4 (FFAR4)), 100μM, read-out: % GPCR activation compared to TPA)	Compound	activation at 10 µM (348 GPCRs [2]; [11])	activation at 100 µM (348 GPCRs [3]; [12])	activation at 100 µM (348 GPCRs [4]; [13])	activation at 10 µM (348 GPCRs [5]; [14])	activation at 10 µM (348 GPCRs [5]; [15])
2.081%	-0.381%	-2.44%	16.9%	-7.33%	0.817%			N#C[C@@]1(c2ccc3c(N)ncnn23)O[C@H](CO)[C@@H](O)[C@H]1O [GS441524]					
-1%		-2.37%	12.9%	-8.27%		-1.4%	-1.72%	NC(=O)c1nc(F)cnc1O [favipiravir, 6-fluoro-3-hydroxy-2-pyrazinecarboxamide]					
-5.385%	0.738%	-3.06%	1.7%	-1.75%	-1.23%			CC(C)C(=O)OC[C@H]1O[C@@H](n2ccc(NO)nc2=O)[C@H](O)[C@@H]1O [molnupiravir]					
